Reference: patent US8324390B2, “Tetrazole-substituted anthranilamides as pesticides” (Bayer CropScience AG, priority 2008, dated 2012)
Like-named read-outs stand apart in the source and are kept apart here.

Legend:
[1] = tested on: caterpillars of the armyworm (Spodoptera frugiperda); test: Spodoptera frugiperda test (SPODFR spray treatment); format: in vivo; settings: Spodoptera frugiperda, foliar, read-out: effect in % (caterpillars killed)
Excerpt: (§1) Solvent: 78.0 parts by weight of acetone

[2] = log P determination by HPLC (EEC Directive 79/831 Annex V.A8); format: physicochemical
Protocol: The measurements were carried out using an Agilent 1100 LC system with a 50*4.6 Zorbax Eclipse C18 1.8 μm column (oven temperature 55° C., flow rate 2.0 ml/min).
The following mobile phases were used:
Mobile phase A: acetonitrile+1000 μl of formic acid/l
Mobile phase B: Millipore water+900 μl of formic acid/l

[3] = tested on: green peach aphid (Myzus persicae); test: Myzus test (MYZUPE spray treatment); format: in vivo; settings: Myzus persicae, foliar, read-out: effect in % (aphids killed)
Excerpt: Solvent: 78 parts by weight of acetone
as §1

[4] = tested on: larvae of the mustard beetle (Phaedon cochleariae); test: Phaedon test (PHAECO spray treatment); settings: Phaedon cochleariae, in Brassica rapa, foliar, read-out: effect in % (beetle larvae killed)
[5] = application rate 100 g/ha, maize leaf discs
[6] = application rate 100 g/ha, Chinese cabbage leaf discs
[7] = reversed-phase HPLC, Zorbax Eclipse C18 column, determined by HPLC according to EEC Directive 79/831 Annex V.A8, read-out: log P

| SMILES | pest or weed control at 100 g/ha [1, 5] | chromatographic logP ([2]; reversed-phase HPLC, Zorbax Eclipse C18 column, by HPLC according to EEC Directive 79/831 Annex V.A8, read-out: log P) | pest or weed control at 100 g/ha [3, 6] | pest or weed control at 100 g/ha [4] | pest or weed control at 100 g/ha ([1]; in Zea mays) | chromatographic logP ([2]; log P) | pest or weed control at 100 g/ha ([3]; in Brassica rapa) | chromatographic logP [2, 7] |
| --- | --- | --- | --- | --- | --- | --- | --- | --- |
| CNC(=O)c1cc(Cl)cc(C)c1NC(=O)c1cc(Cn2nnc(C(F)(F)F)n2)nn1-c1ccccc1Br [Example 345] | ≥ 80% | 3.5 | ≥ 80% | ≥ 80% | – | – | – | – |
| CNC(=O)c1cc(Cl)cc(Cl)c1NC(=O)c1cc(Cn2nnnc2C(F)(F)C(F)(F)F)nn1-c1ncccc1Cl [Example 447] | – | – | – | ≥ 80% | ≥ 80% | 3.03 | ≥ 80% | – |
| Cc1cc(Cl)cc(C(=O)NC(C)C)c1NC(=O)c1cc(Cn2nnnc2C(F)F)nn1-c1ncccc1Cl [Example 462] | – | – | – | ≥ 80% | ≥ 80% | 2.75 | ≥ 80% | – |
| Cc1cc(Br)cc(C(=O)NC(C)C2CC2)c1NC(=O)c1cc(Cn2nnc(C(F)(F)F)n2)nn1-c1ncccc1Cl (stereo not drawn) [Example 31] | – | – | – | ≥ 80% | ≥ 80% | 3.89 | ≥ 80% | – |
| CNC(=O)c1cc(C)cc(C)c1NC(=O)c1cc(Cn2nnc(C(F)(F)F)n2)nn1-c1ncccc1Cl [Example 78] | – | – | – | ≥ 80% | ≥ 80% | 2.81 | ≥ 80% | – |
| Cc1cc(C)c(NC(=O)c2cc(Cn3nnnc3C(F)(F)F)nn2-c2ncccc2Cl)c(C(=O)NC2CC2)c1 [Example 180] | – | – | – | ≥ 80% | ≥ 80% | 2.71 | ≥ 80% | – |
| Cc1cc(C#N)cc(C(=O)NC(C)(C)C)c1NC(=O)c1cc(Cn2nnc(C3CC3)n2)nn1-c1ncccc1Cl [Example 105] | – | – | – | ≥ 80% | ≥ 80% | 2.93 | ≥ 80% | – |
| CCNC(=O)c1cc(Cl)cc(C)c1NC(=O)c1cc(Cn2nnnc2C(F)(F)F)nn1-c1ncccc1Br [Example 494] | ≥ 80% | – | ≥ 80% | ≥ 80% | – | – | – | 2.88 |
| Cc1cc(C#N)cc(C(=O)NC(C)C)c1NC(=O)c1cc(Cn2nnnc2C(F)(C(F)(F)F)C(F)(F)F)nn1-c1ncccc1Cl [Example 500] | ≥ 80% | – | ≥ 80% | ≥ 80% | – | – | – | 3.5 |
| CCNC(=O)c1cc(C#N)cc(C)c1NC(=O)c1cc(Cn2nnnc2C(F)(F)C(F)(F)F)nn1-c1ncccc1Br [Example 519] | ≥ 80% | – | ≥ 80% | ≥ 80% | – | – | – | 2.94 |
| CNC(=O)c1cc(Br)cc(C)c1NC(=O)c1cc(Cn2nnc(C(F)F)n2)nn1-c1ncccc1Cl [Example 296] | – | – | – | ≥ 80% | ≥ 80% | 2.61 | ≥ 80% | – |
| Cc1cc(C#N)cc(C(=O)NCC(C)C)c1NC(=O)c1cc(Cn2nnc(C(F)(F)F)n2)nn1-c1ccccc1Cl [Example 533] | ≥ 80% | – | ≥ 80% | ≥ 80% | – | – | – | 3.84 |
| Cc1cc(I)cc(C(=O)NC(C)C)c1NC(=O)c1cc(Cn2nnnc2C(F)(F)F)nn1-c1ncccc1Br [Example 504] | ≥ 80% | – | ≥ 80% | ≥ 80% | – | – | – | 3.41 |
| Cc1cc(C#N)cc(C(N)=O)c1NC(=O)c1cc(Cn2nnc(C(F)(F)C(F)(F)F)n2)nn1-c1ncccc1Br [Example 424] | ≥ 80% | – | ≥ 80% | ≥ 80% | – | – | – | 2.8 |
| O=C(NC1CC1)c1cc(Cl)cc(Cl)c1NC(=O)c1cc(Cn2nnc(C(F)(C(F)(F)F)C(F)(F)F)n2)nn1-c1ncccc1Cl [Example 339] | – | – | – | ≥ 80% | ≥ 80% | 3.89 | ≥ 80% | – |
| Cc1cc(I)cc(C(N)=O)c1NC(=O)c1cc(Cn2nnnc2C(F)(F)F)nn1-c1ncccc1Br [Example 497] | ≥ 80% | – | ≥ 80% | ≥ 80% | – | – | – | 2.63 |
| Cc1cc(Cl)cc(C(=O)NCC#N)c1NC(=O)c1cc(Cn2nnc(C(F)(F)F)n2)nn1-c1ncccc1Cl [Example 19] | – | – | – | ≥ 80% | ≥ 80% | 2.93 | ≥ 80% | – |
| Cc1cc(C#N)cc(C(=O)NC(C)(C)C)c1NC(=O)c1cc(Cn2nnc(C(F)(F)C(F)(F)F)n2)nn1-c1ncccc1Br [Example 425] | ≥ 80% | – | ≥ 80% | ≥ 80% | – | – | – | 3.78 |
| CCNC(=O)c1cc(Br)cc(C)c1NC(=O)c1cc(Cn2nnc(C(F)(F)F)n2)nn1-c1ncccc1Br [Example 411] | ≥ 80% | – | ≥ 80% | ≥ 80% | – | – | – | 3.36 |
| CNC(=O)c1cc(I)cc(C)c1NC(=O)c1cc(Cn2nnc(C(F)(F)F)n2)nn1-c1ncccc1Cl [Example 65] | – | – | – | ≥ 80% | ≥ 80% | 3.21 | ≥ 80% | – |
| Cc1cc(C#N)cc(C(=O)NOC(C)C)c1NC(=O)c1cc(Cn2nnc(C(F)(F)F)n2)nn1-c1ncccc1Cl [Example 398] | – | – | – | ≥ 80% | ≥ 80% | 2.88 | ≥ 80% | – |
| Cc1cc(Cl)cc(C(=O)NC(C)C)c1NC(=O)c1cc(Cn2nnnc2C(F)(F)C(F)(F)F)nn1-c1ncccc1Cl [Example 201] | – | – | – | ≥ 80% | ≥ 80% | 3.59 | ≥ 80% | – |
| CSC[C@H](C)NC(=O)c1cc(F)cc(C)c1NC(=O)c1cc(Cn2nnc(C(F)(F)F)n2)nn1-c1ncccc1Cl [Example 43] | – | – | – | ≥ 80% | ≥ 80% | 3.31 | ≥ 80% | – |
| Cc1cc(Cl)cc(C(=O)NC(C)CF)c1NC(=O)c1cc(Cn2nnc(C(F)(F)F)n2)nn1-c1ncccc1Cl (stereo not drawn) [Example 328] | – | – | – | ≥ 80% | ≥ 80% | 3.3 | ≥ 80% | – |
| Cc1cc(Cl)cc(C(=O)NC(C)C)c1NC(=O)c1cc(Cn2nnc(C(F)(F)C(F)(F)F)n2)nn1-c1ncccc1Cl [Example 129] | – | – | – | ≥ 80% | ≥ 80% | 3.94 | ≥ 80% | – |
| Cc1cc(I)cc(C(=O)NC(C)C)c1NC(=O)c1cc(Cn2nnnc2C(F)(F)F)nn1-c1ncccc1Cl [Example 173] | – | – | – | ≥ 80% | ≥ 80% | 3.36 | ≥ 80% | – |
| CNC(=O)c1cc(C#N)cc(C)c1NC(=O)c1cc(Cn2nnc(C(F)(C(F)(F)F)C(F)(F)F)n2)nn1-c1ncccc1Cl [Example 367] | – | – | – | ≥ 80% | ≥ 80% | 3.35 | ≥ 80% | – |
